26 molecules from ChEMBL document CHEMBL1121624, “Synthesis, biological evaluation, and preliminary structure-activity considerations of a series of alkylphenols as intravenous anesthetic agents” (J Med Chem, 1980) can be followed below.

Usually LD50 stands for the dose at which mortality reaches 50%.

The species entered for one series is Mus musculus. Put plainly: Duration of analgesic action in mice was determined; M = moderate, 5-10 min. The class given is functional, organism-based.
Conditions: not given
Take `CCCCC(C)c1cccc(CCC)c1O` (stereo unspecified): the Duration of action entry is recorded as “Moderate”.

`CCC(C)c1cccc(C(C)CC)c1O` (stereo unspecified): the Duration of action result was “Moderate”.

A further series is filed under the species Mus musculus. The experiment in a line: Hypnotic activity was measured as dose which causes loss of righting reflex for a minimum period of 30s in 50% of mice. It counts as functional.
Conditions: not given
Consider `CCc1cc(C(C)C)c(O)c(C(C)C)c1`, for which the HD50 is 20 mg/kg.

The molecule `CCC(C)c1cc(C)cc(C(C)CC)c1O` (stereo unspecified) registered an HD50 of 30 mg/kg.

`Cc1c(C(C)C)ccc(C(C)C)c1O` yielded an HD50 of 20 mg/kg.

On to `Cc1ccc(O)c(C(C)(C)C)c1`, for which the HD50 came to 30 mg/kg.

Regarding `Cc1cc(C(C)C)c(O)c(C(C)C)c1`, the HD50 was 20 mg/kg.

As to `Cc1ccc(C(C)C)c(O)c1` [THYMOL], the HD50 came to 30 mg/kg.

With `CCCCC(C)c1cccc(CCC)c1O` (stereo unspecified), the HD50 worked out at 50 mg/kg.

Regarding `Cc1cc(C)c(C(C)C)c(O)c1C(C)C`, the HD50 came to 120 mg/kg.

In turn, `CCCCc1c(C)ccc(C(C)C)c1O` displayed an HD50 of 50 mg/kg.

As to `CCc1ccc(O)c(C(C)C)c1`, the HD50 was found to be 40 mg/kg.

In turn, `Oc1ccccc1` [PHENOL] gave an HD50 of 70 mg/kg.

For another series, the species on record is Mus musculus. The experiment in a line: Hypnotic activity was measured as dose which causes loss of righting reflex for a minimum period of 30s in 50% of mice; Range is 20-25. It counts as functional.
Conditions: not given
As to `CCCC(C)C1(CC)C(=O)[N-]C(=S)NC1=O.[Na+]` (stereo in doubt; form 2) [THIOPENTAL SODIUM], the HD50 was 20 mg/kg.

The species entered for another series is Mus musculus. The experiment in a line: Hypnotic activity was measured as dose which causes loss of righting reflex for a minimum period of 30s in 50% of mice; Range is 20-30. The class given is functional.
Conditions: not given
`CCC(C)c1ccc(O)c(C(C)CC)c1` (stereo unspecified): the HD50 was determined as 20 mg/kg.

Molecule `CCCC(C)c1ccccc1O` (stereo unspecified) gave an HD50 of 20 mg/kg.

The species entered for a further series is Mus musculus. The experiment in a line: Hypnotic activity was measured as dose which causes loss of righting reflex for a minimum period of 30s in 50% of mice; Range is 30-40. It counts as functional.
Conditions: not given
With `Cc1ccc(C(C)C)cc1O` [CARVACROL], the HD50 is 30 mg/kg.

Take `Cc1ccc(O)c(C)c1`: the HD50 came out at 30 mg/kg.

Molecule `CC(C)c1ccccc1O` registered an HD50 of 30 mg/kg.

The molecule `CC(C)c1ccc(O)cc1` returned an HD50 of 30 mg/kg.

As for `CCC(C)c1ccccc1O` (stereo unspecified), the HD50 stood at 30 mg/kg.

The species named for another series is Mus musculus. Put plainly: Hypnotic activity was measured as dose which causes loss of righting reflex for a minimum period of 30s in 50% of mice; Range is 40-60. The class given is functional.
Conditions: not given
`CC(C)c1ccc(O)c(C(C)C)c1` showed an HD50 of 40 mg/kg.

As for `CC(C)(C)c1ccc(O)c(C(C)(C)C)c1`, the HD50 worked out at 40 mg/kg.

The species entered for another series is Mus musculus. Put plainly: Hypnotic activity was measured as dose which causes loss of righting reflex for a minimum period of 30s in 50% of mice; Range is 5-10. The class given is functional.
Conditions: not given
Molecule `C=CCC1(C(C)C#CCC)C(=O)N=C([O-])N(C)C1=O.[Na+]` (stereo unspecified) [METHOHEXITAL SODIUM] showed an HD50 of 5 mg/kg.

With `CCC(C)c1cccc(C(C)CC)c1O` (stereo unspecified), the HD50 is 5 mg/kg.

Another series is filed under the species Mus musculus. The experiment in a line: Hypnotic activity was measured as dose which causes loss of righting reflex for a minimum period of 30s in 50% of mice; Range is 80-100. The class given is functional.
Conditions: not given
`Cc1cc(C(C)(C)C)c(O)c(C(C)(C)C)c1` [BUTYLATED HYDROXYTOLUENE]: the HD50 is 80 mg/kg.

For the molecule `CC(C)(C)c1cccc(C(C)(C)C)c1O`, the HD50 came to 80 mg/kg.

The species named for a further series is Mus musculus. Put plainly: Speed of induction of analgesia in mice was determined; S = slow, 10-15 s. It counts as functional, organism-based.
Conditions: not given
As for `CCC(C)c1cccc(C(C)CC)c1O` (stereo unspecified), the Speed of induction result is “Slow”.

The species named for the next series is Mus musculus. The experiment in a line: Speed of induction of analgesia in mice was determined; VS = very slow, > 15s. It counts as functional, organism-based.
Conditions: not given
In the case of `CCCCC(C)c1cccc(CCC)c1O` (stereo unspecified), the Speed of induction result is recorded as “Very slow”.

Test system in a further series: not listed separately
The experiment in a line: Acute toxicity measured as median lethal dose in mice. It counts as organism-based. The note with it: mouse, in vivo.
For `CC(C)c1ccc(O)c(C(C)C)c1`, the median lethal dose (LD50) was 120 mg/kg.

The molecule `CCC(C)c1cc(C)cc(C(C)CC)c1O` (stereo unspecified) displayed an LD50 of 140 mg/kg.

Regarding `Cc1c(C(C)C)ccc(C(C)C)c1O`, the LD50 came to 100 mg/kg.

`CCCCC(C)c1cccc(CCC)c1O` (stereo unspecified) registered a median lethal dose (LD50) of 140 mg/kg.

Molecule `CCC(C)c1ccc(O)c(C(C)CC)c1` (stereo unspecified) yielded a median lethal dose (LD50) of 120 mg/kg.

For `CCCCc1c(C)ccc(C(C)C)c1O`, the LD50 was determined as 150 mg/kg.

For the molecule `CCc1ccc(O)c(C(C)C)c1`, the LD50 amounted to 120 mg/kg.

Turning to `Oc1ccccc1` [PHENOL], the LD50 was found to be 100 mg/kg.

`C=CCC1(C(C)C#CCC)C(=O)N=C([O-])N(C)C1=O.[Na+]` (stereo unspecified) [METHOHEXITAL SODIUM] yielded an LD50 of 30 mg/kg.

`CCC(C)c1cccc(C(C)CC)c1O` (stereo unspecified) returned an LD50 of 60 mg/kg.

In turn, `CCCC(C)c1ccccc1O` (stereo unspecified) returned an LD50 of 100 mg/kg.

In turn, `CC(C)(C)c1cccc(C(C)(C)C)c1O` returned an LD50 of 120 mg/kg.

Test system in a further series: not listed separately
The experiment in a line: Acute toxicity measured as median lethal dose in mice; Range is 100-120. The class given is organism-based. The note with it: mouse, in vivo.
In the case of `CC(C)(C)c1ccc(O)c(C(C)(C)C)c1`, the LD50 amounted to 100 mg/kg.

Consider `Cc1ccc(O)c(C)c1`, for which the LD50 was found to be 100 mg/kg.

As for `CC(C)c1ccccc1O`, the LD50 is 100 mg/kg.

Test system in another series: not listed separately
Put plainly: Acute toxicity measured as median lethal dose in mice; Range is 160-180. The class given is organism-based. The note with it: mouse, in vivo.
`Cc1cc(C)c(C(C)C)c(O)c1C(C)C` returned a median lethal dose (LD50) of 160 mg/kg.

Test system in a further series: not listed separately
The experiment in a line: Acute toxicity measured as median lethal dose in mice; Range is 40-60. Particulars: mouse, in vivo. The class given is organism-based.
As to `CCC(C)c1ccc(O)cc1` (stereo unspecified), the LD50 is 40 mg/kg.

On to `CC(C)c1ccc(O)cc1`, for which the LD50 is 40 mg/kg.

Test system in a further series: not listed separately
The experiment in a line: Acute toxicity measured as median lethal dose in mice; Range is 80-100. It counts as organism-based. Particulars: mouse, in vivo.
In the case of `CCc1cc(C(C)C)c(O)c(C(C)C)c1`, the 50% lethal dose (LD50) is 80 mg/kg.

`Cc1ccc(C(C)C)cc1O` [CARVACROL] showed an LD50 of 80 mg/kg.

For the molecule `Cc1cc(C(C)C)c(O)c(C(C)C)c1`, the LD50 came out at 80 mg/kg.

Test system in another series: not listed separately
The experiment in a line: Acute toxicity measured as median lethal dose in mice; Range is 80-90. It counts as organism-based. Particulars: mouse, in vivo.
Take `CCCC(C)C1(CC)C(=O)[N-]C(=S)NC1=O.[Na+]` (stereo in doubt; form 2) [THIOPENTAL SODIUM]: the median lethal dose (LD50) was determined as 80 mg/kg.
